Usually GI50 stands for the concentration at which growth is held to half of that of the control. Low readings indicate greater sensitivity of the cells, high ones lower sensitivity of the cells. The CC50 is the concentration that lowers cell viability or growth by half. Low values mean harm at low concentration, high ones better tolerance by the cells.

SMILES strings stand for the structures.

For 15 molecules, GI50 and CC50 results are on record in ChEMBL document CHEMBL2439994, “Synthesis and biological evaluation of hydrazidomycin analogues” (Bioorg Med Chem Lett, 2013).

Data set [1] concerns K562. The experiment in a line: Antiproliferative activity against human K562 cells after 72 hrs by resazurin dye reduction assay. The format is functional. Particulars: K562, 72 h. In general terms: The colour change of resazurin is a common sign of viable cells or microbes.
Data set [2] has as its system HeLa. Nature of the data set: Cytotoxicity against human HeLa cells after 72 hrs by methylene blue staining. The data set is classed as functional.
Data set [3] in a line: Antiproliferative activity against HUVEC after 72 hrs by resazurin dye reduction assay. The format is cell-based. To be noted: human, HUVEC cells.
The subject of data set [4] is HT-29. Nature of the data set: Antiproliferative activity against human HT-29 cells after 72 hrs by resazurin dye reduction assay. The format is functional. Particulars: HT-29, 72 h.

Molecule `CCCCCCCCCCCC/C=C\N(NC(=O)COC)C(=O)OC(C)(C)C` displayed a concentration for 50% growth inhibition (GI50) in data set [1] of 28.3 µM. Also, the half-maximal cytotoxic concentration (CC50) in data set [2] worked out at 85.3 µM. In data set [3], this molecule displayed a GI50 at 72 h of 15.8 µM.
For `CCCCCCCC/C=C/N(NC(=O)COC)C(=O)OC(C)(C)C`, in that order: 45 µM, 83.2 µM and 49.9 µM.
The corresponding values for `CCCCCCCCCCCCCCN(NC(=O)COC)C(=O)OC(C)(C)C` are 40.9 µM, 41.9 µM and 12.2 µM.
The corresponding values for `CCCCCCCCCCCC/C=C/N(NC(=O)COC)C(=O)OC(C)(C)C` are 41.4 µM, 57.7 µM and 36.1 µM.
Take `CCCCCCCCCCCC/C=C\N(NC(=O)COC)C(=O)CCCCCCCCC` [HYDRAZIDOMYCIN A]: the GI50 in data set [1] was > 110 µM; in data set [4], 0.46 µM. Besides, the CC50 in data set [2] was 108 µM. The molecule further returned a GI50 at 72 h in data set [3] of 70.7 µM.
In data set [1], `CCCCCCCCCCN(NC(=O)COC)C(=O)OC(C)(C)C` registered a GI50 of 40.6 µM. This molecule registered a CC50 in data set [2] of 104 µM. The molecule further showed a GI50 at 72 h in data set [3] of 22.9 µM.
The corresponding values for `CCCCCCCCCCCCCCN(N)C(=O)OC(C)(C)C` are 58.7 µM, 96.5 µM and 27.1 µM.
In turn, `CCCCCCCCCCNNC(=O)COC` had a concentration for 50% growth inhibition (GI50) in data set [1] of 167 µM. Moreover, the 50% cytotoxic concentration (CC50) in data set [2] was 138 µM. Moreover, the GI50 at 72 h in data set [3] was 156 µM.
For `CCCCCCCCCCCC/C=C/N(NC(=O)COC)C(=O)CCCCCCCCC`, in that order: > 110 µM, > 110 µM and 46.2 µM.
For `CCCCCCCCCCCCCCN(NC(=O)COC)C(=O)CCCCCCCCC`, in that order: > 110 µM, > 110 µM and 103 µM.
Regarding `CCCCCCCCCCCC/C=C\N(NC(=O)CCl)C(=O)CCCCCCCCC`, the GI50 in data set [1] stood at 18.4 µM. This molecule also came in with a CC50 in data set [2] of 104 µM. The same molecule gave a GI50 at 72 h in data set [3] of 57.5 µM.
The corresponding values for `CCCCCCCC/C=C\N(NC(=O)COC)C(=O)OC(C)(C)C` are 61.3 µM, 104 µM and 85.5 µM.
Molecule `CCCCCCCCCCN(NC(=O)COC)C(=O)CCCCCCCCC` displayed a 50% growth inhibitory concentration (GI50) in data set [1] of 97.3 µM. In data set [2], the half-maximal cytotoxic concentration (CC50) was > 125 µM. This molecule gave a GI50 at 72 h in data set [3] of 114 µM.
The corresponding values for `CCCCCCCCCCCCCCNNC(=O)COC` are 66.2 µM, 59.6 µM and 33.6 µM.
Consider `CCCCCCCCCCCC/C=C\N(NC(C)=O)C(=O)CCCCCCCCC`, for which the concentration for 50% growth inhibition (GI50) in data set [1] was 41.9 µM. For the same molecule, the CC50 in data set [2] was 83.3 µM. In addition, it took 39.7 µM to inhibit growth in data set [3] by half (GI50 at 72 h).
